# Assays:
# [1] = system: EBV-positive lymphoblastoid cell lines (LCL); experiment: MTS proliferation assay; type: cell-based, human
# Description: MTS proliferation assays were performed according the CellTiter 96™ Aqueous Cell Proliferation Assay Technical Bulletin (Promega, Madison, Wis.). 5×10^4 cells were plated in each well of a 96-well plate at 37° C. and assayed for proliferation at 24, 72, and 120 hr.
# The direct anti-tumor activity of silvestrol in leukemia and lymphoma models has been document (Hwang 2004; Bordeleau 2008; Cencic 2009; Lucas 2009 Alinari 2011; Saradhi 2011) as well as silvestrol's increased cytotoxicity to malignant B cells compared to normal blood lymphocytes (Lucas 2009). However, activity of silvestrol has not previously been described in spontaneous EBV-transformed cell lines. Silvestrol's activity in fully transformed EBV-positive LCL derived from tumors of SCID mice engrafted with PBMC from EBV-seropositive donors was observed. Six of these EBV-LCL lines were plated in the presence of low concentrations of silvestrol (2-50 nM), and apoptosis (viability assessed by annexin/PI flow cytometry) (FIG. 2A) and proliferation (MTS assay) (FIG. 2B) were evaluated at 24, 72, and 120 hr. Cells were plated at a sufficiently low density so that even after five days there was minimal loss of viability due to nutrient depletion in the untreated control. In FIG. 2A, data are shown as percent annexin-negative and PI-negative cells relative to the time-matched vehicle control. Bars show −/+ standard deviation. […]
# [2] = system: immune effector subsets (CD3+/CD4+, CD3+/CD8+, CD3-/CD56+); experiment: Irradiated LCL / autologous PBMC co-cultures, flow cytometry; type: cell-based, human; settings: 14 days
# Description: Lymphoblastoid cell lines (LCL) were derived in vivo by engrafting severe combined immune-deficient (SCID) mice (Taconic, Hudson N.Y.) with human peripheral blood mononuclear cells (PBMC) from a healthy EBV-positive donor as described (Rowe 1991; Baiocchi 1994). Co-cultures (Cocx) were created by mixing 5×10^4 LCL (either non-irradiated or irradiated with 14000 rad) per well with equal numbers of autologous PBMC in 96-well plates. Cultures were grown in the presence of 10 U/mL IL-2 and were given a single dose of silvestrol and cultured for 10-14 days.
# Cells from irradiated or non-irradiated co-cultures were co-stained with LIVE/DEAD cell stain (Invitrogen, Grand Island, N.Y.) and hu-CD3-APC and either hu-CD4-PE, hu-CD-8-PE, hu-CD19-PE (BD Biosciences, San Diego, Calif.), or hu-CD56-PE (Beckman Coulter, Brea, Calif.). Live events were gathered by gating on cells negative for the LIVE/DEAD stain on an FC500 cytometer (Beckman Coulter). Cell viability was also measured by flow cytometry at 24, 72, and 120 hr using annexin-V-FITC and propidium iodide (PI) according to the manufacturer's instructions (BD Biosciences).
# To explore the immune modulatory activity of silvestrol in EBV-LPD, in vitro co-cultures (CoCx) were used. These cultures were created by lethally irradiating LCL lines and mixing them at a ratio of 1:1 with PBMC from the same healthy donor from which the LCL was derived. The PBMC are activated and expand in response to the antigenic stimuli from the EBV-infected LCL (Rowe 1991; Baiocchi 1994; Mosier 1995). CoCx created using three LCL and their respective autologous PBMC were incubated in the presence of 10 U/mL IL-2 and treated with 0 (vehicle only), 2, 5, or 10 nM silvestrol for 14 days. Flow cytometric analysis was conducted. Cells were gated on Live events were gathered by gating on cells negative for the LIVE/DEAD stain. Data are expressed as percentage of viable population, relative to the vehicle CoCx condition, for total cells, CD3^+/CD4^+, CD3^+/C8^+, and CD3^−CD56^+ cells. Results shown are the averages from three individual CoCx. […] As the irradiated LCL were absent by this time, silvestrol allowed for expansion of the normal effector population following LCL exposure.
# lymphoma cell lines = experiment: IC50 against lymphoma cell lines; type: cell-based; settings: Homo sapiens
# Source text: These include EBV^+ lymphoblastoid cell lines (LCL) derived from SCID mice engrafted with peripheral blood mononuclear cells (hu-PBL-SCID) from EBV-positive donors. (FIG. 1). This hu-PBL-SCID model is a spontaneous, preclinical model of EBV-driven lymphomagenesis that can be utilized to study the anti-tumor and immune surveillance activity of EBV-specific memory T cells. In vitro, the anti-proliferative effect of silvestrol against EBV+ LCLs (FIG. 2) is preceded by a loss of EBV latent membrane protein 1 (LMP1). In FIG. 2A, relative proliferation was determined. MTS assays were performed on three donors treated with silvestrol (2, 5, or 10 nM) or DMSO (control). The assays were performed on days 1, 3, and 5. In FIG. 2B, relative growth was determined. Viability assays were performed on cells from three donors treated with silvestrol (2, 5, or 10 nM) or DMSO (control). The assays were performed on days 1, 3, and 5. Viability was assessed by annexin/propidium iodide flow cytometry.
# K562 cells = experiment: NK cytotoxicity of K562 cells; type: cell-based; settings: 10 nM (FIG. 41)
# Source text: FIG. 41 presents data regarding NK cytotoxicity of K562 cells. […] FIG. 42 presents data regarding the cytotoxicity of LCLs pretreated with BZLF 1. […] BZLF1 antigen pulsed LCLs promoted enhanced killing in untreated and silvestrol-treated CTLs. FIG. 43 presents data relating to CD4 IFNgamma release with LCL pretreated with BZLF1. […] FIG. 44 presents data relating to CD4 IFNgamma release with LCL pretreated with BZLF 1. […] FIG. 45 presents data relating to interleukin-6 induction by silvestrol. […] FIG. 46 presents data relating to a change in LMP-1 expression following silvestrol treatment. […] Three cell lines were examined on days 1, 3, and 5 following treatment. FIG. 47 presents data relating to a change in EBNA1 expression following silvestrol treatment. Three cell lines were examined on days 1, 3, and 5 following treatment.
compound,measurement,setting,value
COC(=O)[C@H]1[C@@H](O)[C@@]2(O)c3c(OC)cc(O[C@@H]4O[C@@H]([C@H](O)CO)CO[C@H]4OC)cc3O[C@@]2(c2ccc(OC)cc2)[C@@H]1c1ccccc1 [silvestrol],growth inhibition vs. untreated control,"[1]; 2-50 nM, 24, 72, 120 hr, p<0.0001 averaged over doses and time points",Moderate but significant activity
same,IC50,"[1]; Homo sapiens, Lymphoblastoid cell, six EBV-LCL lines, 72 hr, estimated, read-out: 50% growth inhibitory concentration (IC50)",~40 nM
same,total number of cells expanded in CoCx,"[2]; 10 nM, 10 U/mL IL-2",lower than in the vehicle controls
same,CD4+ T helper cell population relative to untreated CoCx,"[2]; 2, 5, 10 nM",mild decrease
same,CD8+ cytotoxic T cell population relative to untreated CoCx,"[2]; 2, 5, 10 nM",mild decrease
same,CD56+ natural killer cell population relative to untreated CoCx,"[2]; 2, 5, 10 nM",relative increase
same,IC50,lymphoma cell lines,< 10 nM
same,direct killing of K562 cells by NK cells,K562 cells,not adversely affected

# Source: US20140255432A1, “SILVESTROL, SILVESTROL ANALOGS AND USES THEREOF” (priority 2011, published 2014)
